The record followed here is patent US12404265B2, “Substituted pyridine derivatives as SARM1 inhibitors” (Nura Bio, Inc., priority 2020, dated 2025).

The structures appear in SMILES notation.

In this experiment the target is T1, human SARM1(50-724) (Homo sapiens, UniProt Q6SZW1).
T1 construct: 40 nM human SARM1(50-724)
T1 sequence (Q6SZW1 50-724): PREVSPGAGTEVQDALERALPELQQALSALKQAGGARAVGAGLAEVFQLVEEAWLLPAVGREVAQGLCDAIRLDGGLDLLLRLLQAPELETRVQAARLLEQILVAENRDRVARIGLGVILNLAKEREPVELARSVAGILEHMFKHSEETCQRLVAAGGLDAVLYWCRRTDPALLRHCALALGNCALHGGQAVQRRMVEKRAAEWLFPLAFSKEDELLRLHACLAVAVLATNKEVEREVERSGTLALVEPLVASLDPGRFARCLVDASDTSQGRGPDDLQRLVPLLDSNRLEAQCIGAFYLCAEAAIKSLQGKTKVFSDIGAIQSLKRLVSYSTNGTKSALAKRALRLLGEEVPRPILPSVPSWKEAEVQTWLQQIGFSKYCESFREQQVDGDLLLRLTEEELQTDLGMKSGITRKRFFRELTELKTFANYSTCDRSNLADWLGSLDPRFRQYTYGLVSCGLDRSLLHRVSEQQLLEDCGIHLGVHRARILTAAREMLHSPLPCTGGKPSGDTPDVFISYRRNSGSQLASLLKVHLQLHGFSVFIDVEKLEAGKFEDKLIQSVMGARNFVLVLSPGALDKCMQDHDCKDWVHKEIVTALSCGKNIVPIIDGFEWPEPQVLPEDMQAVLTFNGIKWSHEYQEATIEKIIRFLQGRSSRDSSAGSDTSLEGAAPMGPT
In words: SARM1 NADase biochemical assay (HPLC of NAD and NAM). The settings on record: 40 nM human SARM1(50-724), 0.3 mM NMN, 20 μM NAD, 60 minutes room temperature; dose-response from 100 μM, 1:3 dilution. The protocol: Each reaction was run at a volume of 20 μL containing 50 μM compound (dissolved in DMSO; final concentration of DMSO is 1% v/v), 40 nM human SARM1(50-724), 0.3 mM NMN, 20 μM NAD, 1 mM TCEP, 25 mM HEPES pH 7.4, 10 mM KCl and 10 mM MgCl2. The reaction was incubated at room temperature for 60 minutes and quenched with 20 μL of 0.4% formic acid. The samples were run on Agilent HPLC 1260 Infinity II with Synergi 2.5 μM Fusion-RP 100 Å (100×3.0 mm) LC column from Phenomenex. Total run time for each sample was 4 minutes. The run was isocratic with 1.5% methanol in 40 mM ammonium acetate pH 6.0. Samples were run at a flow rate of 0.8 mL/min at 55° C. Peak areas of NAD and NAM were determined using OpenLAB CDS (Chem Station edition) software. For dose-response, the compound was diluted serially 1:3 in DMSO and added to the reaction starting at a final compound concentration of 100 μM in 1% DMSO.
As a reminder, the IC50 is the concentration at which inhibition is half-maximal. Regarding `Cc1c(-c2ccncc2)n[nH]c1NC(=O)CCc1cc(Cl)cc(Cl)c1` [Example 21, 3-(3,5-Dichlorophenyl)-N-(4-methyl-3-(pyridin-4-yl)-1H-pyrazol-5-yl)propanamide], the IC50 was in the range of 1000 to 10000 nM.
In the case of `Cc1c(-c2ccncc2)n[nH]c1NC(=O)CCc1ccccc1` [Example 22, N-(4-Methyl-3-(pyridin-4-yl)-1H-pyrazol-5-yl)-3-phenylpropanamide], the half-inhibitory concentration (IC50) is 1000 to 10000 nM.
Regarding `Cc1c(-c2ccncc2)n[nH]c1NC(=O)CCc1ccccc1Cl` [Example 23, 3-(2-Chlorophenyl)-N-(4-methyl-3-(pyridin-4-yl)-1H-pyrazol-5-yl)propanamide], the 50% inhibitory concentration (IC50) is 1000 to 10000 nM.
Under `Cc1ccc(CCC(=O)Nc2[nH]nc(-c3ccncc3)c2C)cc1` [Example 24, N-(4-Methyl-3-(pyridin-4-yl)-1H-pyrazol-5-yl)-3-(p-tolyl)propanamide] stands under 1000 nM; under `Cc1cccc(CCC(=O)Nc2[nH]nc(-c3ccncc3)c2C)c1` [Example 25, N-(4-Methyl-3-(pyridin-4-yl)-1H-pyrazol-5-yl)-3-(m-tolyl)propanamide], 1000 to 10000 nM.
For `Cc1ccccc1CCC(=O)Nc1[nH]nc(-c2ccncc2)c1C` [Example 26, N-(4-Methyl-3-(pyridin-4-yl)-1H-pyrazol-5-yl)-3-(o-tolyl)propanamide], the IC50 fell in the range of 1000 to 10000 nM.
Consider `COc1ccc(CCC(=O)Nc2[nH]nc(-c3ccncc3)c2C)cc1` [Example 27, 3-(4-Methoxyphenyl)-N-(4-methyl-3-(pyridin-4-yl)-1H-pyrazol-5-yl)propanamide], for which the IC50 was 1000 to 10000 nM.
With `Cc1c(-c2ccncc2)n[nH]c1NC(=O)CCc1ccc2ccccc2c1` [Example 28, N-(4-Methyl-3-(pyridin-4-yl)-1H-pyrazol-5-yl)-3-(naphthalen-2-yl)propanamide], the concentration for half-maximal inhibition (IC50) was 1000 to 10000 nM.
As for `Cc1c(-c2ccncc2)n[nH]c1NC(=O)CCc1cccc2ccccc12` [Example 29, N-(4-Methyl-3-(pyridin-4-yl)-1H-pyrazol-5-yl)-3-(naphthalen-1-yl)propanamide], the figure is 1000 to 10000 nM; as for `Cc1c(-c2ccncc2)n[nH]c1NC(=O)CCc1cccc(Cl)c1` [Example 30, 3-(3-Chlorophenyl)-N-(4-methyl-3-(pyridin-4-yl)-1H-pyrazol-5-yl)propanamide], under 1000 nM; as for `Cc1c(-c2ccncc2)n[nH]c1NC(=O)CCc1ccc(Cl)c(Cl)c1` [Example 31, 3-(3,4-Dichlorophenyl)-N-(4-methyl-3-(pyridin-4-yl)-1H-pyrazol-5-yl)propanamide], under 1000 nM.
Under `Cc1c(-c2ccncc2)n[nH]c1NC(=O)CCc1ccc(C(F)(F)F)cc1` [Example 32, N-(4-Methyl-3-(pyridin-4-yl)-1H-pyrazol-5-yl)-3-(4-(trifluoromethyl)phenyl)propanamide] stands under 1000 nM; under `Cc1c(-c2ccncc2)n[nH]c1NC(=O)CCc1ccc(F)cc1` [Example 33, 3-(4-Fluorophenyl)-N-(4-methyl-3-(pyridin-4-yl)-1H-pyrazol-5-yl)propanamide], under 1000 nM.
As for `CCc1ccc(CCC(=O)Nc2[nH]nc(-c3ccncc3)c2C)cc1` [Example 34, 3-(4-Ethylphenyl)-N-(4-methyl-3-(pyridin-4-yl)-1H-pyrazol-5-yl)propanamide], the figure is 1000 to 10000 nM.
With `Cc1c(-c2ccncc2)n[nH]c1NC(=O)CCc1ccc(Br)cc1` [Example 35, 3-(4-Bromophenyl)-N-(4-methyl-3-(pyridin-4-yl)-1H-pyrazol-5-yl)propanamide], the IC50 was under 1000 nM.
As for `Cc1c(-c2ccncc2)n[nH]c1NC(=O)CCc1ccc(C#N)cc1` [Example 36, 3-(4-Cyanophenyl)-N-(4-methyl-3-(pyridin-4-yl)-1H-pyrazol-5-yl)propanamide], the figure is under 1000 nM; as for `Cc1c(-c2ccncc2)n[nH]c1NC(=O)CCc1ccc([N+](=O)[O-])cc1` [Example 37, N-(4-Methyl-3-(pyridin-4-yl)-1H-pyrazol-5-yl)-3-(4-nitrophenyl)propanamide], under 1000 nM.
